Experimental findings from patent publication US7101878B1 (Agouron Pharmaceuticals, Inc., priority 1998, dated 2006) are described below.

Where two headings read alike, the source gives them in different places.

Data set [1] deals with T1, mouse GnRH receptor (Mus musculus, UniProt Q01776).
T1 construct: expressed in transfected cells; host or cells: 293 cells
T1 sequence (Q01776 1-327): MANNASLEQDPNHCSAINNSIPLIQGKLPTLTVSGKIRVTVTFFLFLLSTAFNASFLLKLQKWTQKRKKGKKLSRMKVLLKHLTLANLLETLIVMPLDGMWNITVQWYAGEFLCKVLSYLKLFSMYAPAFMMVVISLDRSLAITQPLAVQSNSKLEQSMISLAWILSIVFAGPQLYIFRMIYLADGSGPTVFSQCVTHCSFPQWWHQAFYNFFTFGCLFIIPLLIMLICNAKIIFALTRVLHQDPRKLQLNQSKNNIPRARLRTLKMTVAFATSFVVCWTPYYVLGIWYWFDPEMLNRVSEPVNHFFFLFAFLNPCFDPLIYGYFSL
Nature of the data set: Radioligand binding, 125I-GnRH-A, 293 cells expressing mouse GnRH receptors. The following applies: read-out: mGnRH IC50. The method in brief:
(§1)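 Bound label captured on 0.1% polyethyleneimine-treated GF/C filters, washed three times with PBS, counted. IC50 derived; identical set-up for every species.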

Data set [2] can be described thus: Pharmacokinetic studies / bioavailability in rats. Format: in vivo, rat. The following applies: for Cmax / Tmax / half-life / bioavailability: rat, plasma; for Cmax / Tmax: po.
Data set [3] deals with T2, rat GnRH receptor (Rattus norvegicus, UniProt P30969).
T2 sequence (P30969 1-327): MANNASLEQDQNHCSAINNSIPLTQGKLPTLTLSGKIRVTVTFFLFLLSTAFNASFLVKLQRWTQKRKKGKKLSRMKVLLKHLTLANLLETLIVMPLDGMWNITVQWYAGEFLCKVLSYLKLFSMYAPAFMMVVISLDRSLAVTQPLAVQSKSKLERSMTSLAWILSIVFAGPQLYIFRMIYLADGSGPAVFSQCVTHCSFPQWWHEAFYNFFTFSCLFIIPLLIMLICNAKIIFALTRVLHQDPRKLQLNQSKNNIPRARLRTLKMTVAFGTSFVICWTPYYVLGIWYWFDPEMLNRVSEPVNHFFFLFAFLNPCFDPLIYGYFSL
Nature of the data set: Radioligand binding, 125I-GnRH-A, rat pituitary membranes. The following applies: read-out: rGnRH IC50. Set-up: membranes were prepared from rat pituitary; from tissue; host or cells: rat pituitary. The method in brief:
as §1

For data set [4], the target named is T3, human GnRH receptor (Homo sapiens, UniProt P30968).
T3 construct: expressed in transfected cells; host or cells: HEK 293 (hGnRH-R/293, from Dr. Stuart Sealfon)
T3 sequence (P30968 1-328): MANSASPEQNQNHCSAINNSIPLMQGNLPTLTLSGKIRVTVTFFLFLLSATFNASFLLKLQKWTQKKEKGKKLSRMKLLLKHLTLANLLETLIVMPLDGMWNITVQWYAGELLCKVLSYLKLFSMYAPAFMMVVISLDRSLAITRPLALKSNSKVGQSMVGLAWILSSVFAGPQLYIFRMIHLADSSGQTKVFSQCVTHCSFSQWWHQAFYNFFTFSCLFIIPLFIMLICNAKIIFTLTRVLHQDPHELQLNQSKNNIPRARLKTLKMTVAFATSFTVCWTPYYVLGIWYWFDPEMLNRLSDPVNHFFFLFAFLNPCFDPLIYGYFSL
The data set can be described thus: Radioligand binding, 125I-GnRH-A displacement, membranes of HEK 293 cells with human GnRH receptor. The following applies: read-out: hGnRH IC50. The essentials:
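Bound tracer was separated by filtration through polyethyleneimine-soaked GF/C filters and counted by liquid scintillation. IC50 from curve fitting; other species were tested under the same conditions.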

Where [5] appears, read: female, 20 mg/kg, rat female, p.o. 20 mg/kg, 10 mg/ml solution in 10% DMSO 10% cremophor 80% saline.
Where [6] appears, read: male, 20 mg/kg, castrated male rats, p.o. 20 mg/kg, 10 mg/ml solution in 10% DMSO 10% cremophor 80% saline.
Where [7] appears, read: male, 20 mg/kg, rat male, p.o. 20 mg/kg, 40 mg/ml in PEG400.
The mark [8] stands for this setting: male, 20 mg/kg, rat male, p.o. 20 mg/kg, vehicle per footnote (DMSO/cremophor/saline).
Setting [9] is: ip, i.p. 20 mg/kg, read-out: Bioavailability after i.p. dosing.
The mark [10] stands for this setting: rat female, p.o. 20 mg/kg, 10 mg/ml solution in 10% DMSO 10% cremophor 80% saline.
Setting [11] is: rat male, p.o. 20 mg/kg, vehicle per footnote (DMSO/cremophor/saline).
Where [12] appears, read: female, 10 mg/kg, rat female, p.o. 10 mg/kg, 5 mg/ml solution in 10% DMSO 10% cremophor 80% saline.
[13] abbreviates: male, 10 mg/kg, rat male, p.o. 10 mg/kg, vehicle per footnote.
Setting [14] is: rat female, 5 mg/ml solution in 10% DMSO 10% cremophor 80% saline.

For orientation: IC50 means the concentration that gives 50% inhibition. As a reminder, the Cmax is the highest concentration seen after dosing. The Tmax is the time from dosing to the highest level. What is called half-life is how long it takes for the measured level to halve.

With `COc1cc(OC)c(NC(=O)c2ccc(Cc3cc4c(cc3C)C(C)(C)CCC4(C)C)o2)c(OC)c1` [Compound 134], the values for the IC50 in data set [1], in data set [3] and in data set [4] were 3 nM, 3 nM and 6 nM, respectively. Besides, the Fp.o. in data set [2] (castrated male rats, p.o. 20 mg/kg, 10 mg/ml solution in 10% DMSO 10% cremophor 80% saline) is listed as 23% (20 mg/kg)^1; in data set [2] (setting [10]), 24% (20 mg/kg)^1; in data set [2] (setting [11]) it was 8% (20 mg/kg)^5. Moreover, the Cmax in data set [2] (setting [5]) amounted to 2310 nM; in data set [2] (setting [6]), 1980 nM; in data set [2] (setting [7]), 230 nM; in data set [2] (setting [8]), 610 nM. The Tmax in data set [2] (setting [5]) came to 1 h; in data set [2] (setting [6]) it was 1.5 h; in data set [2] (setting [8]), 1 h. For the same compound, the half-life in data set [2] (female, rat female) was 1.7 h; in data set [2] (male, castrated male rats) it was 1.7 h; in data set [2] (male, iv, 10 mg/kg, rat male) it was 1.4 h. Also, in data set [2] (setting [9]), the bioavailability worked out at 38%.

As to `Cc1cc2c(cc1Cc1ccc(C(=O)NCc3cccc(CNc4ccnc(NC[C@@H]5CCCO5)n4)c3)o1)C(C)(C)CCC2(C)C` [Compound 136], the IC50 turned out to be 8.6 nM in data set [1] and 4.7 nM in data set [3]. The highest concentration (Cmax) in data set [2] (setting [5]) and in data set [2] (setting [8]) was 240 nM each time. In addition, the Tmax is 2.5 h in data set [2] (setting [5]); 4 h in data set [2] (setting [7]); 3.5 h in data set [2] (male, 20 mg/kg, rat male, p.o. 20 mg/kg, in PG); 2 h in data set [2] (setting [8]). For the same compound, the half-life in data set [2] (female, rat female) is 3.2 h; in data set [2] (male, iv, 10 mg/kg, rat male) it was 2 h. Further, in data set [2] (other: portal vein infusion, portal vein infusion 20 mg/kg, read-out: Portal vein infusion: bioavailable), the bioavailability came to 36%. Further, the Fp.o. in data set [2] (setting [10]) is 8% (20 mg/kg)^1; in data set [2] (setting [11]), 6% (20 mg/kg)^4.

Regarding `COc1cc(OC)c(NC(=O)c2ccc(Cc3cc4c(cc3OC)C(C)(C)CCC4(C)C)o2)c(OC)c1` [Compound 169], the IC50 is 5 nM in data set [1], 7 nM in data set [3] and 12 nM in data set [4]. Further, the half-life in data set [2] (male, iv, 10 mg/kg, rat male) was 1.5 h. The Cmax in data set [2] (setting [8]) was determined as 970 nM. The Tmax in data set [2] (setting [8]) turned out to be 1 h. Also, the bioavailability in data set [2] (setting [9]) came out at 70%. Further, in data set [2] (setting [11]), the Fp.o. is 27% (20 mg/kg)^1.

On to `COc1cc(OC)c(NC(=O)c2ccc(Cc3cc4c(cc3C)C(C)(C)CCC4(C)C)o2)c(OC)c1C#N` [Compound 177], for which the half-inhibitory concentration (IC50) was determined as 7.3 nM in data set [1], 5.7 nM in data set [3] and 7.4 nM in data set [4]. The compound further had a half-life in data set [2] (male, iv, 10 mg/kg, rat male) of 2.2 h. For the same compound, the bioavailability in data set [2] (setting [9]) worked out at 8%. Besides, in data set [2] (setting [11]), the Fp.o. was 0 (20 mg/kg)^9%.

For `COc1cc(OC)c(NC(=O)c2ccc(Cc3cc4c(cc3C)CCCC4(C)C)o2)c(OC)c1` [Compound 183], the IC50 in data set [1] is 2.7 nM; in data set [3], 2.5 nM; in data set [4] it was 6.8 nM. Also, the Cmax in data set [2] (setting [12]) was 510 nM; in data set [2] (setting [13]), 350 nM. Further, the Tmax in data set [2] (setting [12]) and in data set [2] (setting [13]) was 1 h each time. Further, the half-life in data set [2] (female, rat female) was 3.6 h; in data set [2] (male, iv, 10 mg/kg, rat male) it was 4.1 h. Moreover, the Fp.o. in data set [2] (setting [14]) is 37% (10 mg/kg)^10; in data set [2] (rat male, vehicle per footnote), 29% (10 mg/kg)^10.

For the compound `COc1cc(OC)c(NC(=O)c2ccc(Cc3cc(C(C)(C)C)ccc3C)o2)c(OC)c1` [Compound 200], the IC50 is 13 nM in data set [1], 2.8 nM in data set [3] and 42 nM in data set [4]. Besides, in data set [2] (setting [12]), the Cmax stood at 960 nM. For the same compound, the Tmax in data set [2] (setting [12]) was 1.5 h. Also, in data set [2] (female, rat female), the half-life was 2 h. Moreover, in data set [2] (setting [14]), the Fp.o. is on record as 33% (10 mg/kg)^10.
